Data: paper PMC2863073 (Glia, 2008)

Tested on: oligodendrocyte NMDA receptor (NR1-containing; probably NR1, NR2C and NR3)
Assay: whole-cell patch clamp of NMDA-evoked current, […] min memantine pre-exposure
Format: cell-based, Rattus norvegicus

SMILES: CC12CC3CC(C)(C1)CC(N)(C3)C2 [memantine]
- IC50: 54 µM
